Laboratory results reported in patent US4536346A, “Aralkanamidophenyl compounds” (American Cyanamid Company, priority 1983, dated 1985).

target: T1, fatty acyl CoA: cholesterol acyl transferase (ACAT) (Rattus norvegicus, UniProt O70536); test: Inhibition of enzymatic esterification of cholesterol (ACAT) in rat adrenal supernatant containing the microsomal fraction; assay type: biochemical; settings: final concentration of test compound 5.2 μg./ml., percent inhibition of the ACAT enzyme compared to control values
T1 construct: The supernatant, containing the microsomal fraction, served as the source of the cholesterol-esterifying enzyme; from tissue; host or cells: rat adrenals (1,000 x g supernatant containing the microsomal fraction)
T1 sequence (O70536 1-545): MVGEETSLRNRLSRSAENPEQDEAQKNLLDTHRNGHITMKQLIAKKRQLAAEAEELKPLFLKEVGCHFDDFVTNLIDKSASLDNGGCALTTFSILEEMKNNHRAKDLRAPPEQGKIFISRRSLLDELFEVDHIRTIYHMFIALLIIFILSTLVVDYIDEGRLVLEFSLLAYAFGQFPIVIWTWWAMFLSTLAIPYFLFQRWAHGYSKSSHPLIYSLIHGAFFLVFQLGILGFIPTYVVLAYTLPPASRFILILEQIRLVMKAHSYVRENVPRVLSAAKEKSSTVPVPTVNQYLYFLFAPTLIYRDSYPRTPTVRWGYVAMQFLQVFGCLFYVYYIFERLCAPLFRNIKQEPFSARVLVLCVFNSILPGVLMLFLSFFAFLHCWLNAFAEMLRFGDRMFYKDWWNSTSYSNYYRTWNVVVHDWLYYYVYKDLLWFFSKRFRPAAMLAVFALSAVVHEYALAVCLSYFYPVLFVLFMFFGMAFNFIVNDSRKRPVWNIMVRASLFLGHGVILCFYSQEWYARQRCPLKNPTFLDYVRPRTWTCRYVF
Protocol: The compounds of the present invention were tested for their ability to inhibit the enzymatic esterification of cholesterol according to the following procedure:
Rat adrenals were homogenized in 0.2M monobasic potassium phosphate buffer, pH 7.4, and centrifuged at 1,000 times gravity for 15 minutes at 5° C. The supernatant, containing the microsomal fraction, served as the source of the cholesterol-esterifying enzyme, fatty acyl CoA: cholesterol acyl transferase (ACAT). A mixture comprising 50 parts of adrenal supernatant, 10 parts of albumin (BSA) (50 mg./ml.), […], 3 parts of test compound, and 500 parts of buffer was pre-incubated at 37° C. for 10 minutes. After treatment with 20 parts of oleoyl CoA (^14 C-0.4 μCi), the mixture was incubated at 37° C. for 10 minutes. A control mixture, omitting the test compound, was prepared and treated in the same manner. The lipids from the incubation mixture were extracted into an organic solvent and separated by thin-layer chromatography. The cholesterol ester fraction was counted in a scintillation counter. This procedure is a modification of that described by Hashimoto, et al., Life Scie., 12 (Part II), 1-12 (1973).
The results of this test on representative compounds of this invention appear in Table I. The final concentration of the test compound was 5.2 μg./ml., and the effectiveness of the compound is expressed as percent inhibition of the ACAT enzyme compared to control values.

| Compound | inhibition at 5.2 µg/mL [%] |
| --- | --- |
| COC(=O)c1ccccc1NC(=O)C=C(c1ccc(Cl)cc1)c1ccc(Cl)cc1 [2-[3,3-Bis(p-chlorophenyl)acrylamido]benzoic acid, methyl ester] | 71 |
| O=C(C=C(c1ccc(Cl)cc1)c1ccc(Cl)cc1)Nc1ccccc1C(=O)O [2-[3,3-Bis(p-chlorophenyl)acrylamido]benzoic acid] | 32 |
| O=C(C=C(c1ccc(Cl)cc1)c1ccc(Cl)cc1)Nc1cccc(C(=O)O)c1 [3 - [3,3-Bis(p-chlorophenyl)acrylamido]benzoic acid] | 98 |
| N#Cc1ccc(NC(=O)C=C(c2ccc(Cl)cc2)c2ccc(Cl)cc2)cc1 [3,3-Bis(p-chlorophenyl-4'-cyanoacrylanilide] | 96 |
| COC(=O)c1cccc(NC(=O)C=C(c2ccc(Cl)cc2)c2ccc(Cl)cc2)c1 [3-[3,3-Bis(p-chlorophenyl)acrylamido]benzoic acid, methyl ester] | 94 |
| CC(=O)c1ccc(NC(=O)C=C(c2ccc(Cl)cc2)c2ccc(Cl)cc2)cc1 [4'-Acetyl-3,3-bis(p-chlorophenyl)acrylanilide] | 86 |
| COc1ccc(C(CC(=O)Nc2ccc(C(C)=O)cc2)c2ccc(OC)cc2)cc1 [4'-[3,3-Bis(4-methoxyphenyl)propionamido]acetophenone] | 82 |
| COc1ccc(C(CC(=O)Nc2ccc(C(=O)O)cc2)c2ccc(OC)cc2)cc1 [4'-[3,3-Bis(4-methoxyphenyl)propionamido]benzoic acid] | 45 |
| O=C(C=C(c1ccccc1)c1ccccc1)Nc1ccc(C(=O)O)cc1 [4-(3,3-Diphenylacrylamido)benzoic acid] | 66 |
| O=C(C=C(c1ccccc1)c1ccc(Cl)cc1)Nc1ccc(C(=O)O)cc1 [4-(p-Chloro-β-phenylcinnamamido)benzoic acid] | 77 |
| O=C(CCc1ccc(Cl)cc1)Nc1ccc(C(=O)O)cc1 [4-(p-Chlorohydrocinnamamido)benzoic acid] | 33 |
| O=C(CCCCCc1ccc(Cl)cc1)Nc1ccc(C(=O)O)cc1 [4-(p-Chlorophenyl)hexanamidobenzoic acid, 4-[6-(p-Chlorophenyl)hexanamido]benzoic acid] | 18 |
| COc1ccc(C=CC(=O)Nc2ccc(C(=O)O)cc2)cc1 [4-(p-Methoxycinnamamido)benzoic acid] | 20 |
| CCOC(=O)c1ccc(NC(=O)CCc2ccc(OC)cc2)cc1 [4-(p-Methoxyhydrocinnamamido)benzoic acid, ethyl ester] | 28 |
| Cc1ccc(C(=CC(=O)Nc2ccc(C(=O)O)cc2)c2ccccc2)cc1 [4-(p-Methyl-β-phenylcinnamamido)benzoic acid] | 80 |
| CCOC(=O)c1ccc(NC(=O)CCc2ccc(C)cc2)cc1 [4-(p-Methylhydrocinnamamido)benzoic acid, ethyl ester] | 25 |
| O=C(C=Cc1ccc(Cl)cc1)Nc1ccc(C(=O)O)cc1 [4-(p-chlorocinnamamido)benzoic acid, 4-(p-Chlorocinnamamido)benzoic acid] | 41 |
| CCOC(=O)c1ccc(NC(=O)C(c2ccc(Cl)cc2)c2ccc(Cl)cc2)cc1 [4-[2,2-Bis(p-chlorophenyl)acetamido]benzoic acid, ethyl ester] | 86 |
| O=C(O)c1ccc(NC(=O)C(c2ccc(Cl)cc2)c2ccc(Cl)cc2)cc1 [4-[2,2-Bis(p-chlorophenyl)acetamido]benzoic acid] | 71 |
| O=C(C=C(c1ccc(Br)cc1)c1ccc(Br)cc1)Nc1ccc(C(=O)O)cc1 [4-[3,3-Bis(p-bromophenyl)acrylamido]benzoic acid] | 90 |
| O=C(C=C(c1ccc(Cl)cc1)c1ccc(Cl)cc1)Nc1ccc(C(=O)O)cc1 [4-[3,3-Bis(p-chlorophenyl)acrylamido]benzoic acid] | 91 |
| CCOC(=O)c1ccc(NC(=O)CC(c2ccc(Cl)cc2)c2ccc(Cl)cc2)cc1 [4-[3,3-Bis(p-chlorophenyl)propionamido]benzoic acid, ethyl ester] | 94 |
| O=C(CC(c1ccc(Cl)cc1)c1ccc(Cl)cc1)Nc1ccc(C(=O)O)cc1 [4-[3,3-Bis(p-chlorophenyl)propionamido]benzoic acid] | 71 |
| O=C(C=C(c1ccc(F)cc1)c1ccc(F)cc1)Nc1ccc(C(=O)O)cc1 [4-[3,3-Bis(p-fluorophenyl)acrylamido]benzoic acid] | 79 |
| COc1ccc(C(=CC(=O)Nc2ccc(C(=O)O)cc2)c2ccc(OC)cc2)cc1 [4-[3,3-Bis(p-methoxyphenyl)acrylamido]benzoic acid] | 78 |

Second part, the molecule after the results:

| inhibition at 5.2 µg/mL [%] | Compound |
| --- | --- |
| 74 | CCOC(=O)c1ccc(NC(=O)C=C(C)c2ccc(Cl)c(Cl)c2)cc1 [4-(3,4-Dichlorophenyl-β-methylacrylamido)benzoic acid, ethyl ester] |
| 94 | CCOC(=O)c1ccc(NC(=O)C=C(c2ccccc2)c2ccc(Cl)c([N+](=O)[O-])c2)cc1 [4-(4-Chloro-3-nitro-β-phenylcinnamamido)benzoic acid, ethyl ester] |
| 74 | CCOC(=O)c1ccc(NC(=O)C=C(C)c2ccc(Cl)cc2)cc1 [4-(p-Chloro-β-methylcinnamamido)benzoic acid, ethyl ester] |
| 71 | CC(=CC(=O)Nc1ccc(C(=O)O)cc1)c1ccc(Cl)cc1 [4-(p-Chloro-β-methylcinnamamido)benzoic acid] |
| 92 | CCOC(=O)c1ccc(NC(=O)C=C(c2ccccc2)c2ccc(Cl)cc2)cc1 [4-(p-Chloro-β-phenylcinnamamido)benzoic acid, ethyl ester] |
| 51 | CCOC(=O)c1ccc(NC(=O)C=Cc2ccc(Cl)cc2)cc1 [4-(p-Chlorocinnamamido)benzoic acid, ethyl ester] |
| 30 | CCOC(=O)c1ccc(NC(=O)CCc2ccc(Cl)cc2)cc1 [4-(p-Chlorohydrocinnamamido)benzoic acid, ethyl ester] |
| 53 | CCOC(=O)c1ccc(NC(=O)C=Cc2ccc(OC)cc2)cc1 [4-(p-Methoxycinnamamido)benzoic acid, ethyl ester] |
| 88 | CCOC(=O)c1ccc(NC(=O)C=C(c2ccccc2)c2ccc(C)cc2)cc1 [4-(p-Methyl-β-phenylcinnamamido)benzoic acid, ethyl ester] |
| 96 | CCOC(=O)c1ccc(NC(=O)C=C(c2ccc(Br)cc2)c2ccc(Br)cc2)cc1 [4-[3,3-Bis(p-bromophenyl)acrylamido]benzoic acid, ethyl ester] |
| 93 | CCOC(=O)c1ccc(NC(=O)C=C(c2ccc(Cl)cc2)c2ccc(Cl)cc2)cc1 [4-[3,3-Bis(p-chlorophenyl)acrylamido]benzoic acid, ethyl ester] |
| 74 | CCOC(=O)c1ccc(NC(=O)C=C(c2ccc(F)cc2)c2ccc(F)cc2)cc1 [4-[3,3-Bis(p-fluorophenyl)acrylamido]benzoic acid, ethyl ester] |
| 97 | CCOC(=O)c1ccc(NC(=O)C=C(c2ccc(OC)cc2)c2ccc(OC)cc2)cc1 [4-[3,3-Bis(p-methoxyphenyl)acrylamido]benzoic acid, ethyl ester] |
| 97 | CCOC(=O)c1ccc(NC(=O)C=C(c2ccc(C)cc2)c2ccc(C)cc2)cc1 [4-[3,3-Di-(p-tolyl)acrylamido]benzoic acid, ethyl ester] |
